US20100330029A1, “Cancer Treatments with Radiation and Immunocytokines” (Merck Patent GmbH, priority 2008, published 2010)

What was measured:
CT26-specific T-cells = test: ELISPOT assay for IFNγ induction in splenocytes, CT26/KSA model; type: in vivo, mice; conditions: radiation followed by EMD521873, compared to either therapy alone
Procedure: Enzyme-linked immunospot C (ELISPOT) assays for IFNγ induction in splenocytes were conducted by first coating ELISPOT plates with an anti-IFNγ antibody (murine IFNγ kit, BD Biosciences). Splenocytes from treated mice were added to the plates and incubated with an AH1:A5 peptide to stimulate IFNγ release from CT26-specific T-cells. Biotinylated IFNγ detection Ab and streptavidin-HRP were added to the plates. Resultant spots from individual IFNγ-producing lymphocytes were counted using a Zeiss® KS-ELISPOT plate reader.

[1] = tested on: immune effector cell populations in blood; test: FACS analysis of immune effector cell populations in blood, CT26/KSA model; type: in vivo, mice
Procedure: Immune effector cell populations in blood were analyzed by FACS. Blood was collected from the retro-orbital sinus of each mouse. Red blood cells were eliminated using lysis buffer. After blocking with rat IgG (1:50), samples were incubated with a 7-color cocktail of antibodies against CD4, CD8, CD25, CD44, CD62L, CD11b, and DX5. Samples were run on a FacsARIA and analyzed for various cell subpopulations.

CT26 colon carcinoma = test: tumor growth assay, CT26 model; type: in vivo, mice; conditions: Experiment CT26-4; 8 Gy followed by i.v. EMD521873 days 2, 3, 4
Description: CT26 cells, a murine colon epithelial cell line derived by intrarectal injection of N-nitroso-N-methylurethane in BALB/C mice, were transfected to express the human KS antigen (KSA or EpCAM) that was cloned by PCR and expressed in parental cells using a retroviral vector (Gillies 1998). CT26/KSA cells were maintained in DMEM, supplemented with 10% heat inactivated fetal bovine serum, L-glutamine, vitamins, sodium pyruvate, non-essential amino acids, penicillin/streptomycin and Geneticin® (G418) (Life Technologies, Inc.) at 37° C. and 7% CO2. G418 was added to maintain KSA expression. CT26 and CT26/KSA cells were implanted in female BALB/C mice.
For the tumor growth assay, cells growing exponentially in culture were injected as a single cell suspension in 100 μl of PBS intramuscularly into the upper legs of the mice. In experiments using a dual tumor model, cells were also implanted in the flanks of the mice. […] Thereafter, animal survival was monitored. […] Mice were treated on days 0 to 6 and day 17, and tumor size was measured twice weekly for the duration of the study.
(§1) Tumors were measured with calipers in three dimensions for the duration of the experiment. Tumor volumes were calculated using the equation: […]
In the CT26 model (Experiment CT26-4), tumors were irradiated with either 4 or 8 Gy followed by i.v. EMD521873 on days 2, 3, and 4. […] Immune response in the tumor was not monitored.

[2] = tested on: Lewis Lung Carcinoma cells; test: rechallenge of cured mice with Lewis Lung Carcinoma cells; type: in vivo
Procedure: The ability of irradiation followed by intravenous administration of the exemplary immunocytokine EMD521873 to generate a long lasting immune response was tested by rechallenging cured mice with tumor cells. Mice bearing Lewis Lung Carcinoma tumors were originally treated with either fractionated radiation (3.6 Gy/d, d0-4) plus cisplatin (4 mg/kg, d0), EMD521873 alone (5 mg/kg, d7, 8, 9), or the combination of EMD521873 plus chemoradiation.

malignant melanoma = test: study in cutaneous/subcutaneous malignant melanoma; type: in vivo; conditions: human melanoma; EMD521873 0.3 mg/kg and local radiation vs EMD521873 only
Procedure: A study is performed to investigate the responses of cutaneous metastases in patients with stage IIIb-IV cutaneous/subcutaneous malignant melanoma to EMD521873 at the tumor site and in blood to EMD521873 in combination with local irradiation (25 Gy). The first treatment cycle with EMD521873 starts on day 1. Subsequent cycles are administered at 3-week intervals. Prior to the first dose of EMD521873, subjects are treated with two courses of local radiation (25 Gy) administered in fractions of 5 Gy on 5 consecutive days ([…]; and days −7 to −3) to different metastases.
For each patient, at least two cutaneous or subcutaneous lesions eligible for biopsy are selected for potential radiation (lesion A1 and lesion A2) and, if present, a third lesion (lesion A3) is also selected. A biopsy of a cutaneous/subcutaneous lesion (lesion A1) and blood sampling are performed at baseline (D-28). After 7 days, allowing for the necessary healing of the biopsy area, lesion A1 is irradiated (5×5 Gy) over 5 consecutive days starting on day −21 (D−21 to D−17). On day −7 (D−7) blood samples are withdrawn and a biopsy of the irradiated lesion A1 is taken. This tumor sample serves as an intraindividual control to assess the effect of radiation alone. On day −14, the pre-selected lesions A2 and A3 are also biopsied and blood drawn. […]

B16 melanoma = test: tumor growth assay, B16 model; type: in vivo, mice; conditions: Experiment B16-1; 10 Gy d0 followed by i.v. EMD521873 days 3, 4, 5
Procedure: B16 cells, a murine melanoma cell line, were maintained in RPMI 1640, supplemented with 10% heat inactivated fetal bovine serum, L-glutamine, sodium pyruvate, non-essential amino acids, penicillin/streptomycin (Life Technologies, Inc.) at 37° C. and 7% CO2. B16 cells were implanted in female C57BL/6 mice.
For the tumor growth assay, cells growing exponentially in culture were injected as a single cell suspension in 100 μl of PBS intramuscularly into the upper legs of the mice. In experiments using a dual tumor model, cells were also implanted in the flanks of the mice. After tumors had become established, treatment was initiated (day 0). In Experiment LLC-7, tumors were implanted in the flank until established. Mice were treated on days 0 to 9, then, on day 12, tumors were excised using survival surgery. Thereafter, animal survival was monitored. […] Mice were treated on days 0 to 6 and day 17, and tumor size was measured twice weekly for the duration of the study.
as §1
In addition, there was a moderate, but significant increase in certain immune response markers in the tumor as measured by immune marker gene expression profiles with CD25, TNFA, TYROBP, ICOS and CD45 being modulated >4-fold compared to either therapy alone.

dI-NHS76γ2(h)(FN>AQ)-ala-IL2(D20T) [EMD521873]
increase in T cell response (ELISPOT, endogenous CT26 antigen) (CT26-specific T-cells): > 4 fold
CD4+CD25+ lymphocyte subpopulation in the blood ([1]; radiation followed by EMD521873 (combination)): increased
increase in effector T cells in the blood ([1]; radiation followed by EMD521873, compared to either therapy alone): 4 fold
tumor growth (CT26 colon carcinoma): blocked tumor growth beyond either therapy alone
mice with complete response that did not regrow tumor on rechallenge ([2]; EMD521873/Chemoradiation treatment, s.c. LLC rechallenge after complete remission >50 days): 12 out of 13
Immunity to Rechallenge ([2]; Exp LLC-4, cured C57BL/6 mice rechallenged with LLC cells): 0/1
mice with complete responses immune to rechallenge with LLC cells ([2]; LLC-8, LLC-9, combination with chemoradiation): Four out of 4
tumor progression (PET or CT scan) (malignant melanoma): reduced tumor progression
anti-tumor activity (B16 melanoma): greater anti-tumor activity compared to either treatment alone
